A value given as a limit tells only on which side of the number the result lay.

As a reminder, the EC50 is the concentration at which the effect is half-maximal.

In this assay the target is T1, CXCR3 (Homo sapiens, UniProt P49682).
T1 construct: host or cells: CHO-K1 (cAMP Hunter CHOK1 CXCR3 Gi cell line)
T1 sequence (P49682 1-368): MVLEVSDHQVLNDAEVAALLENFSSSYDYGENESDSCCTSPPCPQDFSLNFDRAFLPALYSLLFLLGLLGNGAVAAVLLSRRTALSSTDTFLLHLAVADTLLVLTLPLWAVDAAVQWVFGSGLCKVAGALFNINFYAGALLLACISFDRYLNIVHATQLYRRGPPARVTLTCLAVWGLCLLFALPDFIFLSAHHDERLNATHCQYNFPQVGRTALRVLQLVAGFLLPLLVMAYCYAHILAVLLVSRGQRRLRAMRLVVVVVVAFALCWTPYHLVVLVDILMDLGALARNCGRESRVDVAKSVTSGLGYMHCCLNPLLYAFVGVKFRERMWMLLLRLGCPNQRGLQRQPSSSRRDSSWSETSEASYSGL
Briefly: CXCR3 cAMP agonist assay (cAMP Hunter CHOK1 CXCR3 Gi cell line, forskolin-stimulated, HitHunter cAMP detection). Format: cell-based. The note with it: cAMP Hunter CHOK1 CXCR3 Gi cells, 20 μM forskolin, 30 minutes; read-out: Activity (CXCR3 cAMP agonist assay compound EC50). The gist of the method: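 CHOK1 cells expressing human CXCR3 with Gi coupling, 50,000/well in suspension in HBSS/10 mM HEPES/0.1% BSA pH 7.4, were co-treated with 20 μM forskolin and compound (12-point, 0-10 μM, 1% DMSO) for 30 min. cAMP was read by enzyme-complementation luminescence; CXCL11 dose response set maximum efficacy.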
In the case of `NCC[C@H](NC(=O)[C@@H]1Cc2ccccc2CN1C(=O)CCC(=O)N1CCN2CCC[C@@H]2C1)C(=O)Nc1ccc(Cl)c(Cl)c1F` [Compound 15-49], the EC50 was under 50 nM. As to `Cc1cccc(NC(=O)[C@H](CCN2CCC(O)CC2)NC(=O)[C@@H]2Cc3ccccc3CN2C(=O)CCC(=O)c2ccccc2)c1F` [Compound 28-2], the EC50 was under 50 nM. With `Cc1ccc(NC(=O)[C@H](CCN)NC(=O)[C@@H]2Cc3ccccc3CN2C(=O)CCC(=O)c2ccccc2)c(C(F)(F)F)c1` [Compound 14-13] the figure was 250 to 500 nM. With `Cc1cc(NC(=O)[C@H](CCN)NC(=O)[C@@H]2Cc3ccccc3CN2C(=O)CCC(=O)N2CCC[C@@H]2c2ccccc2)ccc1Cl` [Compound 12-132], the EC50 was in the range of 50 to 250 nM. As for `Cc1cc(NC(=O)[C@H](CCN)NC(=O)[C@@H]2Cc3ccccc3CN2C(=O)CCC(=O)N2CCN(C3CC3)CC2)ccc1Cl` [Compound 12-33], the EC50 was 50 to 250 nM. Turning to `NCC[C@H](NC(=O)[C@@H]1Cc2ccccc2CN1C(=O)CCC(=O)c1ccccc1)C(=O)Nc1cc(Cl)c(Cl)cn1` [Compound 4-15], the EC50 was in the range of 250 to 500 nM. For the compound `Cc1cc(NC(=O)C2(NC(=O)[C@@H]3Cc4ccccc4CN3C(=O)CCC(=O)c3ccccc3)CCN(CCO)CC2)ccc1Cl` [Compound 20-1, (S)—N-(4-((4-chloro-3-methylphenyl)carbamoyl)-1-(2-hydroxyethyl)piperidin-4-yl)-2-(4-oxo-4-phenylbutanoyl)-1,2,3,4-tetrahydroisoquinoline-3-carboxamide], the EC50 lay in the range of 50 to 250 nM.

Consider `Cc1cc(NC(=O)[C@H](CCN)NC(=O)[C@@H]2Cc3ccccc3CN2C(=O)CCC(=O)N2CCC(C#N)C2)ccc1Cl` (stereo partly drawn) [Compound 12-70], for which the EC50 was in the range of 50 to 250 nM. Turning to `O=C(CCC(=O)N1Cc2ccccc2C[C@H]1C(=O)N[C@@H](CCN1CCCC(F)(F)C1)C(=O)Nc1ccc2c(c1)CCC2)c1ccccc1` [Compound 23-8], the EC50 fell in the range of 250 to 500 nM.

For `Cc1cc(NC(=O)[C@H](CCN)NC(=O)[C@@H]2Cc3ccccc3CN2C(=O)CCC(=O)N2CCCCCC2)ccc1Cl` [Compound 12-13], the EC50 was under 50 nM. `NCC[C@H](NC(=O)[C@@H]1Cc2ccccc2CN1C(=O)CCC(=O)c1ccccc1)C(=O)Nc1ccc2c(c1)CCC2=O` [Compound 2-69]: the EC50 was over 500 nM. Turning to `Cc1cc(NC(=O)[C@H](CC(N)=O)NC(=O)[C@@H]2Cc3ccccc3CN2C(=O)CCC(=O)c2ccccc2)ccc1Cl` [Compound 3-12], the EC50 was in the range of 50 to 250 nM.

Take `Cc1cc(NC(=O)[C@H](CCN2CCC(O)CC2)NC(=O)[C@@H]2Cc3ccccc3CN2C(=O)CCC(=O)c2ccccc2)c(F)cc1Cl` (racemic) [Compound 25-2]: the EC50 fell in the range of 50 to 250 nM. Regarding `CCN(CC(C)(C)C)C(=O)CCC(=O)N1Cc2ccccc2C[C@H]1C(=O)N[C@@H](CCN)C(=O)Nc1ccc(Cl)c(Cl)c1F` [Compound 15-40], the EC50 fell in the range of 50 to 250 nM. With `Cc1ccc(OC(F)(F)F)c(NC(=O)[C@H](CCN)NC(=O)[C@@H]2Cc3ccccc3CN2C(=O)CCC(=O)c2ccccc2)c1` [Compound 14-25], the EC50 was under 50 nM. As to `COC1CCN(CC[C@H](NC(=O)[C@@H]2Cc3ccccc3CN2C(=O)CCC(=O)c2ccccc2)C(=O)Nc2ccc(Cl)c(C)c2)CC1` [Compound 24-1, (S)—N—((S)-1-((4-chloro-3-methylphenyl)amino)-4-(4-methoxypiperidin-1-yl)-1-oxobutan-2-yl)-2-(4-oxo-4-phenylbutanoyl)-1,2,3,4-tetrahydroisoquinoline-3-carboxamide], the 50% effective concentration (EC50) lay within 50 to 250 nM. Regarding `NCC[C@H](NC(=O)[C@@H]1Cc2ccccc2CN1C(=O)CCC(=O)N1CCCCC1C1CCC1)C(=O)Nc1ccc(Cl)c(Cl)c1F` (stereo partly drawn) [Compound 15-22], the EC50 is under 50 nM. Regarding `CS(=O)(=O)NCC[C@H](NC(=O)[C@@H]1Cc2ccccc2CN1C(=O)CCC(=O)N1CCCCC1)C(=O)Nc1ccc(Cl)c(Cl)c1F` [Compound 32-1, (S)—N—((S)-1-((3,4-dichloro-2-fluorophenyl)amino)-4-(methylsulfonamido)-1-oxobutan-2-yl)-2-(4-oxo-4-(piperidin-1-yl)butanoyl)-1,2,3,4-tetrahydroisoquinoline-3-carboxamide], the EC50 was 50 to 250 nM. With `O=C(CCC(=O)N1Cc2ccccc2C[C@H]1C(=O)N[C@@H](CCN1CCCC(F)(F)C1)C(=O)Nc1ccc(Cl)c(Cl)c1F)c1ccccc1` [Compound 23-5] the figure was 250 to 500 nM; with `Cc1cc(NC(=O)C(Cc2cccnc2)NC(=O)[C@@H]2Cc3ccccc3CN2C(=O)CCC(=O)c2ccccc2)ccc1Cl` (mixture of isomers) [Compound 3-3], 250 to 500 nM. Consider `Cc1cc(NC(=O)[C@H](CC[N+](C)(C)C)NC(=O)[C@@H]2Cc3ccccc3CN2C(=O)CCC(=O)c2ccccc2)ccc1Cl` [Compound 6-7], for which the EC50 lay within 50 to 250 nM. Consider `NCC[C@H](NC(=O)[C@@H]1Cc2ccccc2CN1C(=O)CCC(=O)c1ccccc1)C(=O)Nc1ccc(C(F)(F)F)c(Cl)c1` [Compound 2-13], for which the EC50 is over 500 nM. `CN(C)CC1CCCCN1C(=O)CCC(=O)N1Cc2ccccc2C[C@H]1C(=O)N[C@@H](CCN)C(=O)Nc1ccc(Cl)c(Cl)c1F` (stereo partly drawn) [Compound 15-17]: the EC50 is over 500 nM.

As to `NCC[C@H](NC(=O)[C@@H]1Cc2ccccc2CN1C(=O)CCC(=O)c1ccccc1)C(=O)Nc1cc2c(cc1O)CCC2` [Compound 2-74], the EC50 lay in the range of 50 to 250 nM. Consider `Cc1cc(NC(=O)[C@H](CCN)NC(=O)[C@@H]2Cc3ccccc3CN2C(=O)CCC(=O)N2CCC[C@H]2C)ccc1Cl` [Compound 12-46], for which the EC50 was under 50 nM. As to `Cc1cc(NC(=O)[C@H](CCN)NC(=O)[C@@H]2Cc3ccccc3CN2C(=O)CCC(=O)c2ccccc2)cc(Br)c1Cl` [Compound 2-40], the EC50 was under 50 nM. With `Cc1cc(NC(=O)[C@H](CCN)NC(=O)[C@@H]2Cc3ccccc3CN2C(=O)CCC(=O)N2CCS(=O)(=O)CC2)ccc1Cl` [Compound 12-17], the EC50 lay in the range of 50 to 250 nM. `Cc1cc(NC(=O)[C@H](CCN)NC(=O)[C@@H]2Cc3ccccc3CN2C(=O)CCC(=O)N2CCC[C@H]2c2ccccc2)ccc1Cl` [Compound 12-147]: the EC50 is under 50 nM. For the compound `Cc1cc(NC(=O)[C@H](CCN)NC(=O)[C@@H]2Cc3ccccc3CN2C(=O)CCC(=O)N2CCCC2(C)C)ccc1Cl` [Compound 12-31], the EC50 was under 50 nM. On to `CS(=O)(=O)Oc1ccc2c(c1)CN(C(=O)CCC(=O)c1ccccc1)[C@H](C(=O)N[C@@H](CCN)C(=O)Nc1ccc(Cl)c(Cl)c1F)C2` [Compound 29-1, (S)-3-(((S)-4-amino-1-((3,4-dichloro-2-fluorophenyl)amino)-1-oxobutan-2-yl)carbamoyl)-2-(4-oxo-4-phenylbutanoyl)-1,2,3,4-tetrahydroisoquinolin-7-yl methanesulfonate], for which the EC50 lay in the range of 50 to 250 nM. As to `Cc1cc(NC(=O)[C@H](CCN)NC(=O)[C@@H]2Cc3ccccc3CN2C(=O)CCC(=O)c2ccccc2)c(I)cc1Cl` [Compound 2-38], the EC50 was under 50 nM.

In the case of `NCCCC[C@H](NC(=O)[C@@H]1Cc2ccccc2CN1C(=O)CCC(=O)c1ccccc1)C(=O)Nc1cccc(F)c1` [Compound 1-8], the EC50 was over 500 nM.

Regarding `Cc1cc(C(=O)CCC(=O)N2Cc3ccccc3C[C@H]2C(=O)N[C@@H](CCCCN)C(=O)Nc2ccc(Cl)c(C)c2)ccc1F` [Compound 7-3], the EC50 was 50 to 250 nM. `Cc1cc(NC(=O)[C@H](CCN)NC(=O)[C@@H]2Cc3ccccc3CN2C(=O)CCC(=O)NC2CC2(F)F)ccc1Cl` (stereo partly drawn) [Compound 12-82]: the EC50 lay in the range of 250 to 500 nM. In the case of `NCC[C@H](NC(=O)[C@@H]1Cc2ccccc2CN1C(=O)CCC(=O)c1ccccc1)C(=O)Nc1cc(F)ccc1Cl` [Compound 14-1, (S)—N—((S)-4-amino-1-((2-chloro-5-fluorophenyl)amino)-1-oxobutan-2-yl)-2-(4-oxo-4-phenylbutanoyl)-1,2,3,4-tetrahydroisoquinoline-3-carboxamide], the EC50 is 250 to 500 nM. Consider `Cc1cc(NC(=O)[C@H](Cc2cncs2)NC(=O)[C@@H]2Cc3ccccc3CN2C(=O)CCC(=O)c2ccccc2)ccc1Cl` [Compound 5-3], for which the EC50 lay within 50 to 250 nM. Regarding `NC(=O)NCCC[C@H](NC(=O)[C@@H]1Cc2ccccc2CN1C(=O)CCC(=O)c1ccccc1)C(=O)Nc1ccc(Cl)c(Cl)c1` [Compound 3-1, (S)—N—((S)-1-((3,4-dichlorophenyl)amino)-1-oxo-5-ureidopentan-2-yl)-2-(4-oxo-4-phenylbutanoyl)-1,2,3,4-tetrahydroisoquinoline-3-carboxamide], the EC50 lay within 50 to 250 nM. As to `NCC[C@H](NC(=O)[C@@H]1Cc2ccccc2CN1C(=O)CCC(=O)c1ccccc1)C(=O)Nc1cccc(Cl)c1Cl` [Compound 14-8], the concentration for a half-maximal effect (EC50) was under 50 nM. Regarding `NCC[C@H](NC(=O)[C@@H]1Cc2ccccc2CN1C(=O)CCC(=O)c1ccccc1)C(=O)Nc1ccc(Cl)cc1C(F)(F)F` [Compound 14-12], the EC50 was in the range of 50 to 250 nM. Turning to `Cc1cc(NC(=O)[C@H](CCN)NC(=O)[C@@H]2Cc3ccccc3CN2C(=O)CCC(=O)NCC(C)(C)C)ccc1Cl` [Compound 12-91], the EC50 was under 50 nM. On to `Cc1ccc(F)c(NC(=O)[C@H](CCN)NC(=O)[C@@H]2Cc3ccccc3CN2C(=O)CCC(=O)c2ccccc2)c1` [Compound 2-33], for which the half-maximal effective concentration (EC50) was under 50 nM. On to `CC1(C)CCCN(C(=O)CCC(=O)N2Cc3ccccc3C[C@H]2C(=O)N[C@@H](CCN2CCC(O)CC2)C(=O)Nc2ccc(Cl)c(Cl)c2F)C1` [Compound 26-3], for which the concentration giving a half-maximal response (EC50) is under 50 nM.

The values are drawn from patent US11040954B1, “CXCR3 receptor agonists” (RECEPTOS LLC, priority 2016, dated 2021).
